# Laboratory results from ChEMBL document CHEMBL5291721, “A preclinical secondary pharmacology resource illuminates target-adverse drug reaction associations of marketed drugs” (Nat Commun, 2023).
# Legend:
# [1] = biological target: Gamma-aminobutyric acid receptor subunit alpha-1 (Rattus norvegicus, UniProt P62813)
# Histamine H2 receptor = Histamine H2 receptor (Homo sapiens, UniProt P25021); assay type: functional, cell-based
# [2] = biological target: cGMP-inhibited 3',5'-cyclic phosphodiesterase 3A (Homo sapiens, UniProt Q14432); assay type: functional
# cGMP-inhibited 3',5'-cyclic phosphodiesterase 3A, sequence (Q14432 whole entry): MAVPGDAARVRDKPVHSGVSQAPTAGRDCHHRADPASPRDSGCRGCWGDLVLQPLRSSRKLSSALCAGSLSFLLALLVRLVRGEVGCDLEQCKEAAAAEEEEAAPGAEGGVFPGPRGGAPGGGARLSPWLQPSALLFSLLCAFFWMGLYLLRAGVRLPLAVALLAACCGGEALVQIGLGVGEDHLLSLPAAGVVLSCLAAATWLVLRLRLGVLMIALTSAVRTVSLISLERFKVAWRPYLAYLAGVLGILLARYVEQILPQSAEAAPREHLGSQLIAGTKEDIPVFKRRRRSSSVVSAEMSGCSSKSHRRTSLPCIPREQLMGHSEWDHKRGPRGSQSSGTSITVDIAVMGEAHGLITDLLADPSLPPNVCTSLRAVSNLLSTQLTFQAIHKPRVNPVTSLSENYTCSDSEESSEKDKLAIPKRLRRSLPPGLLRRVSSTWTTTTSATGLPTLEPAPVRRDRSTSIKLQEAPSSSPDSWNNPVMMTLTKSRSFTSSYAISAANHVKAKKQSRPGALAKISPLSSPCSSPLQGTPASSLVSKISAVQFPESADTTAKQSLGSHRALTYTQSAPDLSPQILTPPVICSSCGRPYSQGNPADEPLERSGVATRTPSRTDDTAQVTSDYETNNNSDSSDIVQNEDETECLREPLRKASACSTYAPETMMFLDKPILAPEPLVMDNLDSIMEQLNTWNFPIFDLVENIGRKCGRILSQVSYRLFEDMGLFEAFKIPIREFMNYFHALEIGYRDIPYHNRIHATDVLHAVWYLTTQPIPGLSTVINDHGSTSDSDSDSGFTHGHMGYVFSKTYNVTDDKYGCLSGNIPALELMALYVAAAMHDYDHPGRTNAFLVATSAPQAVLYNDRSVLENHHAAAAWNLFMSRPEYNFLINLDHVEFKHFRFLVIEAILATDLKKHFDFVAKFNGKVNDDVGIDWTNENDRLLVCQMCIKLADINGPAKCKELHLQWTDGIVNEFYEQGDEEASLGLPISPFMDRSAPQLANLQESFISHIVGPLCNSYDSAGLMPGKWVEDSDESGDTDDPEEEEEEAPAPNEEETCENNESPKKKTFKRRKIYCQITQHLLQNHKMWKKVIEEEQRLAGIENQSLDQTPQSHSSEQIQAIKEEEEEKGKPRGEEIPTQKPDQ
# [3] = biological target: Beta-1 adrenergic receptor (Homo sapiens, UniProt P08588); assay type: functional
# Beta-1 adrenergic receptor, sequence (P08588 whole entry): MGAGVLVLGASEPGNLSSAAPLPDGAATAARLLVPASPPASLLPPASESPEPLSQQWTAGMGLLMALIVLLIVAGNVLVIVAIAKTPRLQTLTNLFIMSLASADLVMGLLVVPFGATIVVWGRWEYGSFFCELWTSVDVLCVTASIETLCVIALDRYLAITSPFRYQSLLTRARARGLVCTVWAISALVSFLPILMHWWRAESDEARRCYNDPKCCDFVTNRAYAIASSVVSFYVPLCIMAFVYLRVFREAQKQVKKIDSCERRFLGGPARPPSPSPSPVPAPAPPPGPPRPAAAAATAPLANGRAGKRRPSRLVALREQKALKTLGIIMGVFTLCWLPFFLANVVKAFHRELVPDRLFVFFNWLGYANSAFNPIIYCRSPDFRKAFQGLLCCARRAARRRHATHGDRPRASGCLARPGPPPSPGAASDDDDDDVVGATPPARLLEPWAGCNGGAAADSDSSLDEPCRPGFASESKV
# [4] = biological target: Growth hormone secretagogue receptor type 1 (Homo sapiens, UniProt Q92847)
# Growth hormone secretagogue receptor type 1, sequence (Q92847 whole entry): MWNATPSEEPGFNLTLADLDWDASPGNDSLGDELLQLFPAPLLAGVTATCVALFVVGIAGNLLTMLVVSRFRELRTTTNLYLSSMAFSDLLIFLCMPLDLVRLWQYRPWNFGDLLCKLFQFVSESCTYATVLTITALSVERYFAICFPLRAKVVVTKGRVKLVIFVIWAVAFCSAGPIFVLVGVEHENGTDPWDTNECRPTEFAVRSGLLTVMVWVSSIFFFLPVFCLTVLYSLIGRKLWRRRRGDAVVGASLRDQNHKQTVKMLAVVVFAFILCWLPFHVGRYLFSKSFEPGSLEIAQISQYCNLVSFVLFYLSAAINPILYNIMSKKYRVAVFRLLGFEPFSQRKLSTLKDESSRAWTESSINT
# [5] = biological target: T1, Alpha-2A adrenergic receptor (Homo sapiens, UniProt P08913); assay type: functional, cell-based
# T1 sequence (P08913 whole entry): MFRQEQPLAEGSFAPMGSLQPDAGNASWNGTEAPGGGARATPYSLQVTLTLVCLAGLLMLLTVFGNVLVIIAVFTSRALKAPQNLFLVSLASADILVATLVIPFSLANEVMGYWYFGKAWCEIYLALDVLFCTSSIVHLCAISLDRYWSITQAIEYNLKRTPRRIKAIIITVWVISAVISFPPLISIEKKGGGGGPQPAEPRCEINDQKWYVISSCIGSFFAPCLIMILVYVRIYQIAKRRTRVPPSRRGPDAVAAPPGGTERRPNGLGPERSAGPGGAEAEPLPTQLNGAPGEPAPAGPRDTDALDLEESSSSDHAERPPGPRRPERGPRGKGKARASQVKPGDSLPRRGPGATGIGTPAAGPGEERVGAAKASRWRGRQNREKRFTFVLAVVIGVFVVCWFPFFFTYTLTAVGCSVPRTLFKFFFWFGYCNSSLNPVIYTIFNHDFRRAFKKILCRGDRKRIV
# [6] = biological target: T1, Alpha-2A adrenergic receptor; assay type: functional, cell-based; remark: listed apart in the source
# [7] = biological target: Kappa-type opioid receptor (Homo sapiens, UniProt P41145)
# Kappa-type opioid receptor, sequence (P41145 whole entry): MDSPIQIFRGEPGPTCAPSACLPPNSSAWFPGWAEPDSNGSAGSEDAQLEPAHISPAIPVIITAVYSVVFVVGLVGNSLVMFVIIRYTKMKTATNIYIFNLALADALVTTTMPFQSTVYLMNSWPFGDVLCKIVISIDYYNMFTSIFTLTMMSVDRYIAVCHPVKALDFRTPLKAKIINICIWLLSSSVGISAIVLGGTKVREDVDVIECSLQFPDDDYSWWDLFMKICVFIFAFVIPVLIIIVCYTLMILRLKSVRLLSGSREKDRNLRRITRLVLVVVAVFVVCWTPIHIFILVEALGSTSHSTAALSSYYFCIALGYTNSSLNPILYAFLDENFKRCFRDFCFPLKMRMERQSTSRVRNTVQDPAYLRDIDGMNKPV
# [8] = biological target: T2, Cholecystokinin receptor type A (Homo sapiens, UniProt P32238)
# T2 sequence (P32238 whole entry): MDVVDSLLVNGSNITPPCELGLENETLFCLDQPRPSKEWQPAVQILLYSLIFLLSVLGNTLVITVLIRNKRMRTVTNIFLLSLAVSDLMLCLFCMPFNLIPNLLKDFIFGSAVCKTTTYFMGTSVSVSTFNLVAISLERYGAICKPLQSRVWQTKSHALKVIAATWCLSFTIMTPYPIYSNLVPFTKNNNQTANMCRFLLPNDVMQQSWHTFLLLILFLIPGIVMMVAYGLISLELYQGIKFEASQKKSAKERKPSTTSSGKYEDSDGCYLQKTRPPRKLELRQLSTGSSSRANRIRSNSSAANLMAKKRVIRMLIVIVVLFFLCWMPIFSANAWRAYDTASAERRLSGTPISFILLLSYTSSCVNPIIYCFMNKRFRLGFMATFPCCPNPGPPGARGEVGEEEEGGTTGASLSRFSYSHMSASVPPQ
# B2 bradykinin receptor = biological target: T3, B2 bradykinin receptor (Homo sapiens, UniProt P30411)
# T3 sequence (P30411 whole entry): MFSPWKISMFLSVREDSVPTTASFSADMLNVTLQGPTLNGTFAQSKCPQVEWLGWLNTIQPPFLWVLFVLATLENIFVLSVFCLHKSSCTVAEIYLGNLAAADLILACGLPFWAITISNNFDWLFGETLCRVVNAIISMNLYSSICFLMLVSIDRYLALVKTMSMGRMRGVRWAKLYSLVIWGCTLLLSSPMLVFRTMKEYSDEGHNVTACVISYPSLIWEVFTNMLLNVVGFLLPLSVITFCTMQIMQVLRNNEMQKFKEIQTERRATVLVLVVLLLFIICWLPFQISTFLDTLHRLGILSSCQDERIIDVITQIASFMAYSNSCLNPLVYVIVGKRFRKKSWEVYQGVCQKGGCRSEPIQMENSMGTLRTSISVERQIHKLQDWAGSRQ
# [9] = biological target: Glutamate receptor ionotropic, NMDA 1 (Rattus norvegicus, UniProt P35439)
# Vasopressin V2 receptor = Vasopressin V2 receptor (Homo sapiens, UniProt P30518)
# Vasopressin V2 receptor, sequence (P30518 whole entry): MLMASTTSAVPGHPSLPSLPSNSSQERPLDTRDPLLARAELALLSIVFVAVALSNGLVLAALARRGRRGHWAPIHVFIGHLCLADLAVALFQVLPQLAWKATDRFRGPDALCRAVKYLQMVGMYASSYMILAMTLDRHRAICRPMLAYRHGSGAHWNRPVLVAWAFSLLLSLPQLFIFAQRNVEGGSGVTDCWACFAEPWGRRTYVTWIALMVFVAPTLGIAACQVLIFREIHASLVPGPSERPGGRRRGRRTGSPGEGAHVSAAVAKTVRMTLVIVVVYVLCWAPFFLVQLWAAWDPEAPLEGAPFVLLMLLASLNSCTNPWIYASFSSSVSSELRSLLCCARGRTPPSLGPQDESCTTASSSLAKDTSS
# D(1A) dopamine receptor = D(1A) dopamine receptor (Homo sapiens, UniProt P21728); assay type: functional, cell-based
# D(1A) dopamine receptor, sequence (P21728 whole entry): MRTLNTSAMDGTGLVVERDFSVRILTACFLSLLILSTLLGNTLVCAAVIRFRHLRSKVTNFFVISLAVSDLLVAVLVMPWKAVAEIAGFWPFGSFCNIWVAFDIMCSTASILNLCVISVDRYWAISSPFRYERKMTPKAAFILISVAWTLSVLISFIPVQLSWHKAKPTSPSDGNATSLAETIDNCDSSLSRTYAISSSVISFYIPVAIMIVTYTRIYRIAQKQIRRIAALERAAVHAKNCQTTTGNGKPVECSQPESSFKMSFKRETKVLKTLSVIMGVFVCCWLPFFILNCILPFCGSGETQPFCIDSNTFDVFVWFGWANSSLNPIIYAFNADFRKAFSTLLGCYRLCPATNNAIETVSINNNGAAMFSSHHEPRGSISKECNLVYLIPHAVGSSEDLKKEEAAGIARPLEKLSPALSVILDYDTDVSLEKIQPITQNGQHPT
# [10] = biological target: T4, Amine oxidase [flavin-containing] A (Homo sapiens, UniProt P21397); assay type: functional
# T4 sequence (P21397 whole entry): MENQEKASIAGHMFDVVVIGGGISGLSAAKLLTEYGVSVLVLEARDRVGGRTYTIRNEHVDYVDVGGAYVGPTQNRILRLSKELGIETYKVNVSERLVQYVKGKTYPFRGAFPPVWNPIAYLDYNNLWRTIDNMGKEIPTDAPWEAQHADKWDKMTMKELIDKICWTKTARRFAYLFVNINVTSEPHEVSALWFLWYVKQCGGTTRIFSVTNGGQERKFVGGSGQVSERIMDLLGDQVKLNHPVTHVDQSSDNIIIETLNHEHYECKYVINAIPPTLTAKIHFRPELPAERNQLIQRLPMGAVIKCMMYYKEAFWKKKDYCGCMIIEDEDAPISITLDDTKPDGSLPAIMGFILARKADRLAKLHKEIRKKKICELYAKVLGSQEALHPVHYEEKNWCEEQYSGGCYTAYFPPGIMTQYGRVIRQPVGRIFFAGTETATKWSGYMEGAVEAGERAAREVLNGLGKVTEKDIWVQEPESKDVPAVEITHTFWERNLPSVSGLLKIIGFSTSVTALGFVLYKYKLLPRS
# Note: assay procedure not described here.
# Gamma-aminobutyric acid receptor subunit alpha-1, sequence (P62813 whole entry): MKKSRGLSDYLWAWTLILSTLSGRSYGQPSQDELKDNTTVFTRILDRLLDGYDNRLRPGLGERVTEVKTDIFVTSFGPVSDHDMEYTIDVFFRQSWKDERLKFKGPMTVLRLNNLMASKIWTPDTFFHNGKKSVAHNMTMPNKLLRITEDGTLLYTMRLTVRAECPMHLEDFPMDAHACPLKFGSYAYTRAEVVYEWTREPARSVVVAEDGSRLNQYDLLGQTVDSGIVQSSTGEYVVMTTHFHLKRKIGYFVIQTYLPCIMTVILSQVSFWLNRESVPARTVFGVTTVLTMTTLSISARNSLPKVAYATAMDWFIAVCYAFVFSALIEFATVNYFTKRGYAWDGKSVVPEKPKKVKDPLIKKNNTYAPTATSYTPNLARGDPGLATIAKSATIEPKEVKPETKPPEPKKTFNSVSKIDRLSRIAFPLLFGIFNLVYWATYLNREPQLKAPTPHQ
# Histamine H2 receptor, sequence (P25021 whole entry): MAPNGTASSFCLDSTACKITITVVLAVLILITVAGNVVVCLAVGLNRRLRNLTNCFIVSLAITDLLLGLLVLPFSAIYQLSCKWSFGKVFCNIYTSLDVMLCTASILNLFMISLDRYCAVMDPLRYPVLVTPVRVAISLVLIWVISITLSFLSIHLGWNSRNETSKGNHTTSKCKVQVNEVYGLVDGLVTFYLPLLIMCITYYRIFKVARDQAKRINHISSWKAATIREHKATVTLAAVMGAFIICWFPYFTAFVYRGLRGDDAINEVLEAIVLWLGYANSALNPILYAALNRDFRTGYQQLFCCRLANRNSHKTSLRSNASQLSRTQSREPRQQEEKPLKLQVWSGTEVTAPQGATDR
smiles,measurement,setting,value
O=P(O)(O)C(Cl)(Cl)P(=O)(O)O [CLODRONIC ACID],AC50,[1],> 30 µM
CC(C1=C(CCN(C)C)Cc2ccccc21)c1ccccn1 (centres undefined),AC50,[1],> 30 µM
C[C@@H](O)[C@H]1C(=O)N2C(C(=O)[O-])=C(SC3Cn4cnc[n+]4C3)[C@H](C)[C@H]12 (some centres undefined) [BIAPENEM],AC50,[1],> 30 µM
CCOC(=O)c1ccc(OC(=O)CCCCCNC(=N)N)cc1 [GABEXATE],AC50,[1],> 30 µM
CCOC(=O)[C@H](CCc1ccccc1)N[C@H]1CS[C@H](c2cccs2)CN(CC(=O)O)C1=O [TEMOCAPRIL],AC50,[1],> 30 µM
NC(=O)NCCC[C@H](N)C(=O)O [L-CITRULLINE],AC50,[1],> 30 µM
C[C@H](N)C(=O)O [ALANINE],AC50,[1],> 30 µM
CCCCOc1ccc(CC(=O)NO)cc1 [BUFEXAMAC],AC50,[1],> 30 µM
C[C@@H]1C[C@H]2[C@@H]3C[C@H](F)C4=CC(=O)C=C[C@]4(C)[C@@]3(Cl)[C@@H](O)C[C@]2(C)[C@H]1C(=O)COC(=O)C(C)(C)C [CLOCORTOLONE PIVALATE],AC50,[1],> 30 µM
CCC[C@@H]1C[C@@H](C(=O)N[C@@H]([C@H]2O[C@H](SC)[C@H](OP(=O)(O)O)[C@@H](O)[C@H]2O)[C@H](C)Cl)N(C)C1 [CLINDAMYCIN PHOSPHATE],AC50,[1],> 30 µM
CCCCCCCC(=O)N[C@H](CN1CCCC1)[C@H](O)c1ccc2c(c1)OCCO2,AC50,[1],> 30 µM
C[C@@H]1CCC[C@H](C)N1NC(=O)c1ccc(Cl)c(S(N)(=O)=O)c1 [CLOPAMIDE],AC50,Histamine H2 receptor,> 30 µM
same,AC50,[2],> 30 µM
same,AC50,[3],> 30 µM
same,AC50,[4],> 30 µM
same,AC50,[5],> 30 µM
same,AC50,[6],> 30 µM
same,AC50,[7],> 30 µM
same,AC50,[8],> 30 µM
same,AC50,B2 bradykinin receptor,> 30 µM
same,AC50,[9],> 30 µM
same,AC50,Vasopressin V2 receptor,> 30 µM
same,AC50,D(1A) dopamine receptor,> 30 µM
same,AC50,[10],> 30 µM
COc1cccc(N(C)C(=S)Oc2ccc3c(c2)CCCC3)n1 [LIRANAFTATE],AC50,Histamine H2 receptor,> 30 µM
same,AC50,[2],> 30 µM
same,AC50,[3],> 30 µM
same,AC50,[4],> 30 µM
same,AC50,[5],> 30 µM
same,AC50,[6],> 30 µM
same,AC50,[7],1.5 µM
same,AC50,[8],> 30 µM
same,AC50,B2 bradykinin receptor,> 30 µM
same,AC50,[9],> 30 µM
same,AC50,Vasopressin V2 receptor,> 30 µM
same,AC50,D(1A) dopamine receptor,> 30 µM
same,AC50,[10],18 µM
CCCCC/C=C\C/C=C\C/C=C\CCCCC(=O)O [GAMOLENIC ACID],AC50,[1],> 30 µM
CCCCCCCCCCCCCCCCCC(=O)NCCCC[C@H](NC(=O)CC[C@@H](NC(=O)[C@H](C)NC(=O)[C@@H](C)O[C@H]1[C@H](O)[C@@H](CO)OC(O)[C@@H]1NC(C)=O)C(N)=O)C(=O)O (some centres undefined) [ROMURTIDE],AC50,[1],> 30 µM
